Species on record: Rattus norvegicus
Assay: DrugMatrix - Regimen: Daily Repeat
Format: toxicity, organism-based, Sprague-Dawley
Parameters: regimen Daily Repeat, gender Male, age 6-8 weeks
Conditions: in vivo, po, route oral GAVAGE, vehicle .5 % CMC; for ABSOLUTE BASOPHIL / ABSOLUTE EOSINOPHIL / ABSOLUTE LYMPHOCYTE / ABSOLUTE MONOCYTE / ABSOLUTE SEGMENTED NEUTROPHIL / BASOPHIL / EOSINOPHIL / ERYTHROCYTE COUNT / HEMATOCRIT / HEMOGLOBIN / LEUKOCYTE COUNT / LYMPHOCYTE / MEAN CORPUSCULAR HEMOGLOBIN / MEAN CORPUSCULAR HEMOGLOBIN CONCENTRATION / MEAN CORPUSCULAR VOLUME / MONOCYTE / NEUTROPHIL / NUCLEATED RED BLOOD CELLS / PLATELET COUNT: tissue Blood; for ALANINE AMINOTRANSFERASE / ALBUMIN / ALKALINE PHOSPHATASE / ASPARTATE AMINOTRANSFERASE / BLOOD UREA NITROGEN / CARBON DIOXIDE / CHLORIDE / CHOLESTEROL / CREATINE PHOSPHOKINASE / CREATININE / GLUCOSE / LACTATE DEHYDROGENASE / LIPASE / PHOSPHORUS / POTASSIUM / SODIUM / TOTAL BILIRUBIN / TOTAL PROTEIN / URIC ACID: tissue Plasma
[1] = 5 mg/kg, 72 h, dose level Low, time 3 day
[2] = 5 mg/kg, 120 h, dose level Low, time 5 day
[3] = 26 mg/kg, 72 h, dose level High, time 3 day
[4] = 26 mg/kg, 120 h, dose level High, time 5 day

`Nc1nnc(-c2cccc(Cl)c2Cl)c(N)n1` [LAMOTRIGINE] was tested, and the “ABSOLUTE BASOPHIL” value [1] was 0 CELLS/uL, the “ABSOLUTE EOSINOPHIL” value [1] was 0 CELLS/uL and the “ABSOLUTE LYMPHOCYTE” value [1] was 10899.33 CELLS/uL. For the same compound, the “ABSOLUTE MONOCYTE” value [1] was 45.33 CELLS/uL, the “ABSOLUTE SEGMENTED NEUTROPHIL” value [1] was 922 CELLS/uL and the BASOPHIL [1] was 0%. For the same compound, the EOSINOPHIL [1] was 0%, the “ERYTHROCYTE COUNT” value [1] was 5.73 x10E6/uL and the HEMATOCRIT [1] was 35.93%. For the same compound, the HEMOGLOBIN [1] was 13.53 G/DL, the “LEUKOCYTE COUNT” value [1] was 11.87 x10E3/uL and the LYMPHOCYTE [1] was 91.67%. The “MEAN CORPUSCULAR HEMOGLOBIN” value [1] was 23.7 pg, the “MEAN CORPUSCULAR HEMOGLOBIN CONCENTRATION” value [1] was 37.7 G/DL and the “MEAN CORPUSCULAR VOLUME” value [1] was 62.83 fL. For the same compound, the MONOCYTE [1] was 0.33%, the NEUTROPHIL [1] was 8% and the “NUCLEATED RED BLOOD CELLS” value [1] was 0.33 /100WBC. For the same compound, the “PLATELET COUNT” value [1] was 1386.33 x10E3/uL, the “ALANINE AMINOTRANSFERASE” value [1] was 59 u/L and the ALBUMIN [1] was 4.23 G/DL. For the same compound, the “ALKALINE PHOSPHATASE” value [1] was 377.33 u/L, the “ASPARTATE AMINOTRANSFERASE” value [1] was 90.67 u/L and the “BLOOD UREA NITROGEN” value [1] was 15 mg/dL. For the same compound, the “CARBON DIOXIDE” value [1] was 25.67 mmol/L, the CHLORIDE [1] was 103.33 MEQ/L and the CHOLESTEROL [1] was 73.33 mg/dL. The “CREATINE PHOSPHOKINASE” value [1] was 322.33 u/L, the CREATININE [1] was 0.43 mg/dL and the GLUCOSE [1] was 152 mg/dL. The “LACTATE DEHYDROGENASE” value [1] was 339.67 u/L, the LIPASE [1] was 10.33 u/L and the PHOSPHORUS [1] was 13.67 mg/dL. For the same compound, the POTASSIUM [1] was 6.72 MEQ/L, the SODIUM [1] was 145.9 MEQ/L and the “TOTAL BILIRUBIN” value [1] was 0.2 mg/dL. The “TOTAL PROTEIN” value [1] was 5.77 G/DL, the “URIC ACID” value [1] was 1.6 mg/dL and the “ABSOLUTE BASOPHIL” value [2] was 0 CELLS/uL. For the same compound, the “ABSOLUTE EOSINOPHIL” value [2] was 56.33 CELLS/uL, the “ABSOLUTE LYMPHOCYTE” value [2] was 12053 CELLS/uL and the “ABSOLUTE MONOCYTE” value [2] was 415 CELLS/uL. The “ABSOLUTE SEGMENTED NEUTROPHIL” value [2] was 1309 CELLS/uL, the BASOPHIL [2] was 0% and the EOSINOPHIL [2] was 0.33%. The “ERYTHROCYTE COUNT” value [2] was 5.33 x10E6/uL, the HEMATOCRIT [2] was 35.73% and the HEMOGLOBIN [2] was 13.3 G/DL. The “LEUKOCYTE COUNT” value [2] was 13.83 x10E3/uL, the LYMPHOCYTE [2] was 87% and the “MEAN CORPUSCULAR HEMOGLOBIN” value [2] was 25 pg. For the same compound, the “MEAN CORPUSCULAR HEMOGLOBIN CONCENTRATION” value [2] was 37.23 G/DL, the “MEAN CORPUSCULAR VOLUME” value [2] was 67.17 fL and the MONOCYTE [2] was 3%. For the same compound, the NEUTROPHIL [2] was 9.67%, the “NUCLEATED RED BLOOD CELLS” value [2] was 0 /100WBC and the “PLATELET COUNT” value [2] was 1207 x10E3/uL. The “ALANINE AMINOTRANSFERASE” value [2] was 54.33 u/L, the ALBUMIN [2] was 4.4 G/DL and the “ALKALINE PHOSPHATASE” value [2] was 422.67 u/L. The “ASPARTATE AMINOTRANSFERASE” value [2] was 86.33 u/L, the “BLOOD UREA NITROGEN” value [2] was 16.67 mg/dL and the “CARBON DIOXIDE” value [2] was 23 mmol/L. For the same compound, the CHLORIDE [2] was 104 MEQ/L, the CHOLESTEROL [2] was 71.67 mg/dL and the “CREATINE PHOSPHOKINASE” value [2] was 218.33 u/L. The CREATININE [2] was 0.41 mg/dL, the GLUCOSE [2] was 152.67 mg/dL and the “LACTATE DEHYDROGENASE” value [2] was 99.67 u/L. For the same compound, the LIPASE [2] was 10.33 u/L, the PHOSPHORUS [2] was 12.27 mg/dL and the POTASSIUM [2] was 6.44 MEQ/L. The SODIUM [2] was 149.03 MEQ/L, the “TOTAL BILIRUBIN” value [2] was 0.17 mg/dL and the “TOTAL PROTEIN” value [2] was 6.17 G/DL. For the same compound, the “URIC ACID” value [2] was 1.8 mg/dL, the “ABSOLUTE BASOPHIL” value [3] was 0 CELLS/uL and the “ABSOLUTE EOSINOPHIL” value [3] was 0 CELLS/uL. The “ABSOLUTE LYMPHOCYTE” value [3] was 13769 CELLS/uL, the “ABSOLUTE MONOCYTE” value [3] was 39.33 CELLS/uL and the “ABSOLUTE SEGMENTED NEUTROPHIL” value [3] was 558.33 CELLS/uL. The BASOPHIL [3] was 0%, the EOSINOPHIL [3] was 0% and the “ERYTHROCYTE COUNT” value [3] was 5.86 x10E6/uL. The HEMATOCRIT [3] was 39.23%, the HEMOGLOBIN [3] was 14.47 G/DL and the “LEUKOCYTE COUNT” value [3] was 14.37 x10E3/uL. The LYMPHOCYTE [3] was 95.67%, the “MEAN CORPUSCULAR HEMOGLOBIN” value [3] was 24.67 pg and the “MEAN CORPUSCULAR HEMOGLOBIN CONCENTRATION” value [3] was 36.9 G/DL. The “MEAN CORPUSCULAR VOLUME” value [3] was 66.93 fL, the MONOCYTE [3] was 0.33% and the NEUTROPHIL [3] was 4%. The “NUCLEATED RED BLOOD CELLS” value [3] was 0.33 /100WBC, the “PLATELET COUNT” value [3] was 1200 x10E3/uL and the “ALANINE AMINOTRANSFERASE” value [3] was 73 u/L. The ALBUMIN [3] was 4.6 G/DL, the “ALKALINE PHOSPHATASE” value [3] was 355.33 u/L and the “ASPARTATE AMINOTRANSFERASE” value [3] was 139.67 u/L. For the same compound, the “BLOOD UREA NITROGEN” value [3] was 13 mg/dL, the “CARBON DIOXIDE” value [3] was 24.67 mmol/L and the CHLORIDE [3] was 102 MEQ/L. The CHOLESTEROL [3] was 91 mg/dL, the “CREATINE PHOSPHOKINASE” value [3] was 1448.33 u/L and the CREATININE [3] was 0.29 mg/dL. For the same compound, the GLUCOSE [3] was 138 mg/dL, the “LACTATE DEHYDROGENASE” value [3] was 373.67 u/L and the LIPASE [3] was 10.33 u/L. It also gave a PHOSPHORUS [3] of 13.67 mg/dL, a POTASSIUM [3] of 7.33 MEQ/L and an SODIUM [3] of 146.47 MEQ/L. For the same compound, the “TOTAL BILIRUBIN” value [3] was 0.2 mg/dL, the “TOTAL PROTEIN” value [3] was 6.5 G/DL and the “URIC ACID” value [3] was 3 mg/dL. For the same compound, the “ABSOLUTE BASOPHIL” value [4] was 0 CELLS/uL, the “ABSOLUTE EOSINOPHIL” value [4] was 0 CELLS/uL and the “ABSOLUTE LYMPHOCYTE” value [4] was 13660 CELLS/uL. The “ABSOLUTE MONOCYTE” value [4] was 181.67 CELLS/uL, the “ABSOLUTE SEGMENTED NEUTROPHIL” value [4] was 558.33 CELLS/uL and the BASOPHIL [4] was 0%. For the same compound, the EOSINOPHIL [4] was 0%, the “ERYTHROCYTE COUNT” value [4] was 5.81 x10E6/uL and the HEMATOCRIT [4] was 37.13%. The HEMOGLOBIN [4] was 14.03 G/DL, the “LEUKOCYTE COUNT” value [4] was 14.4 x10E3/uL and the LYMPHOCYTE [4] was 95%. The “MEAN CORPUSCULAR HEMOGLOBIN” value [4] was 24.17 pg, the “MEAN CORPUSCULAR HEMOGLOBIN CONCENTRATION” value [4] was 37.8 G/DL and the “MEAN CORPUSCULAR VOLUME” value [4] was 63.93 fL. The MONOCYTE [4] was 1.33%, the NEUTROPHIL [4] was 3.67% and the “NUCLEATED RED BLOOD CELLS” value [4] was 0.33 /100WBC. The “PLATELET COUNT” value [4] was 1279.33 x10E3/uL, the “ALANINE AMINOTRANSFERASE” value [4] was 64.67 u/L and the ALBUMIN [4] was 4.4 G/DL. The “ALKALINE PHOSPHATASE” value [4] was 331.33 u/L, the “ASPARTATE AMINOTRANSFERASE” value [4] was 78 u/L and the “BLOOD UREA NITROGEN” value [4] was 18.67 mg/dL. For the same compound, the “CARBON DIOXIDE” value [4] was 27.67 mmol/L, the CHLORIDE [4] was 103 MEQ/L and the CHOLESTEROL [4] was 75.67 mg/dL. For the same compound, the “CREATINE PHOSPHOKINASE” value [4] was 225 u/L, the CREATININE [4] was 0.28 mg/dL and the GLUCOSE [4] was 163 mg/dL. For the same compound, the “LACTATE DEHYDROGENASE” value [4] was 110.33 u/L, the LIPASE [4] was 10.67 u/L and the PHOSPHORUS [4] was 12.43 mg/dL. The POTASSIUM [4] was 7.41 MEQ/L, the SODIUM [4] was 147.97 MEQ/L and the “TOTAL BILIRUBIN” value [4] was 0.2 mg/dL. For the same compound, the “TOTAL PROTEIN” value [4] was 6.2 G/DL and the “URIC ACID” value [4] was 2.03 mg/dL.

Reference: ChEMBL document CHEMBL3885881, “DrugMatrix”
